# Experimental data from US20100159093A1, “METHOD OF TREATING FOODSTUFF” (priority 2008, published 2010).
# Tests used:
# [1] = test system: anaerobic spores, such as C. tyrobutyricum; experiment: Anaerobic spore count in raw milk under nitrogen gas; format: cell-based; conditions: 12.0° C., N1 environment (120 ml/min), Example 5, FIG. 5L
# Protocol: (§1) With the device shown in FIG. 1, the effect of nitrogen gas on the natural microflora in raw milk (volume approximately 125 ml) was examined by replacing the air (control) in an open vessel (volume approximately 250 ml) at a constant temperature, with a flow-through of 100% nitrogen gas (purity 99.999%, manufacturer AGA) at two different flow-through rates: N1=120 ml/min, N2=40 ml/min.
# (§2) The temperature of the raw milk in the sample bottles was adjusted by means of the thermostat (14) of the water bath to bring the temperature of the milk to 6.0° C., 7.0° C. or 12.0° C. The temperature variation in the vessel was less than ±0.1° C.
# (§3) The effect of nitrogen gas on the growth of the microflora in a raw milk sample at 12.0° C. Two flow-through rates of the nitrogen gas were used in the study: (▴) 40 ml/min and ([…]) 120 ml/min. […] The following bacterial levels were determined in the samples:
# (§4) FIG. 5A: Total bacteria count (p.m.y./ml) FIG. 5B: Total number of psychrotrophs (p.m.y./ml) FIG. 5C: Total number of proteolytic bacteria (p.m.y./ml) FIG. 5D: Total number of lipolytic bacteria (p.m.y./ml) FIG. 5E: Total number of bacteria producing phospholipase (p.m.y./ml). […]
# [2] = test system: psychrotrophic P. fluorescens strain; conditions: sterile milk, 4° C., Skura et al.; cited from earlier work
# psychrotrophs = experiment: Growth of psychrotrophs in raw milk under nitrogen gas; format: cell-based; conditions: 12.0° C., N1 environment (120 ml/min)
# Protocol: With the device shown in FIG. 1, the effect of nitrogen gas on the natural microflora in raw milk (volume approximately 125 ml) was examined by replacing the air (control) in an open vessel (volume approximately 250 ml) at a constant temperature, with a flow-through of 100% nitrogen gas (purity 99.999%, manufacturer AGA) at two different flow-through rates: N1=120 ml/min, N2=40 ml/min. The temperature of the raw milk in the sample bottles was adjusted by means of the thermostat (14) of the water bath to bring the temperature of the milk to 6.0° C., 7.0° C. or 12.0° C. The temperature variation in the vessel was less than ±0.1° C. The effect of nitrogen gas on the growth of the microflora in a raw milk sample at 12.0° C. Two flow-through rates of the nitrogen gas were used in the study: (▴) 40 ml/min and ([…]) 120 ml/min. […] The following bacterial levels were determined in the samples: The effect of nitrogen gas on the growth of the microflora in a raw milk sample at 12.0° C. Two flow-through rates of the nitrogen gas were used in the study: (▴) 40 ml/min and ([…]) 120 ml/min. […] The following bacterial levels were determined in the samples: […]
# four Pseudomonas strains = conditions: 15° C., Eyles et al.; cited from earlier work
# anaerobic microbes = experiment: Growth of anaerobically cultivated bacteria in raw milk under nitrogen gas; format: cell-based; conditions: 12.0° C., N1 environment (120 ml/min), Example 5, FIG. 5H
# Protocol: With the device shown in FIG. 1, the effect of nitrogen gas on the natural microflora in raw milk (volume approximately 125 ml) was examined by replacing the air (control) in an open vessel (volume approximately 250 ml) at a constant temperature, with a flow-through of 100% nitrogen gas (purity 99.999%, manufacturer AGA) at two different flow-through rates: N1=120 ml/min, N2=40 ml/min. The temperature of the raw milk in the sample bottles was adjusted by means of the thermostat (14) of the water bath to bring the temperature of the milk to 6.0° C., 7.0° C. or 12.0° C. The temperature variation in the vessel was less than ±0.1° C. The effect of nitrogen gas on the growth of the microflora in a raw milk sample at 12.0° C. Two flow-through rates of the nitrogen gas were used in the study: (▴) 40 ml/min and ([…]) 120 ml/min. […] The following bacterial levels were determined in the samples: FIG. 5A: Total bacteria count (p.m.y./ml) FIG. 5B: Total number of psychrotrophs (p.m.y./ml) FIG. 5C: Total number of proteolytic bacteria (p.m.y./ml) FIG. 5D: Total number of lipolytic bacteria (p.m.y./ml) FIG. 5E: Total number of bacteria producing phospholipase (p.m.y./ml). […]
# [3] = test system: aerobic spores, such as B. cereus; experiment: Aerobic spore count in raw milk under nitrogen gas; format: cell-based; conditions: 12.0° C., N1 environment (120 ml/min), Example 5, FIG. 5F
# Protocol: as §1, §2, §3, §4
# [4] = test system: bacteria producing phospholipase; experiment: Number of phospholipase-producing bacteria (aerobic cultivation) in raw milk under nitrogen gas; format: cell-based
# Protocol: as §1, §2, §3
# FIGS. 7A-C show the effect, in three different samples of raw milk (samples A, B and C), of nitrogen gas at 6.0° C. on the number of the bacteria which produce phospholipase. Two flow-through rates of the nitrogen gas were used in the study: (▴) 40 ml/min, i.e. the N2 environment, and ([…]) 120 ml/min, i.e. the N1 environment.
structure (smiles),measurement,setting,value
N#N [nitrogen gas],formation (sporulation) of anaerobic spores,[1],does not increase the formation (sporulation)
same,growth of P. fluorescens strain versus control culture in normal air,[2],grew slower
same,proteolytic activity of the strain,[2],very low compared with that of the control culture
same,growth of the psychrotrophs,psychrotrophs; Example 4 sample,"no longer prevents the growth of the psychrotrophs, instead it delays it"
same,growth of the psychrotrophs,psychrotrophs; Example 5 sample,substantially delay
same,inhibition of Pseudomonas strains,four Pseudomonas strains,did not establish that pure nitrogen is capable of significantly inhibiting
same,growth of anaerobic microbes,anaerobic microbes,able to delay the growth
same,formation (sporulation) of aerobic spores,[3],does not increase the formation (sporulation)
same,elimination of the bacteria which produce phospholipase,"[4]; 6° C., N1 environment (120 ml/min), adequately long treatment period, three raw milk samples",possible to eliminate the bacteria which produce phospholipase
same,time from beginning of nitrogen gas treatment to elimination of microbes which produce phospholipase,"[4]; 12.0° C., N1 environment (120 ml/min), Example 4 sample",≤ 96 h
same,growth of the aerobic bacteria which secrete phospholipase,"[4]; 12.0° C., N1 environment (120 ml/min), Examples 4 and 5, FIG. 5E",total prevention of growth
same,growth of the number of the microbes which produce phospholipase,"[4]; 12.0° C., N2 environment (40 ml/min), Example 4 sample",ceases in the N2 environment after 3 days
same,growth of the aerobic bacteria which secrete phospholipase,"[4]; 12.0° C., N2 environment (40 ml/min), after 2 days, FIG. 5E",total prevention of growth
same,growth-preventing effect on phospholipase-positive bacteria,[4]; at 7° C.,impossible to detect this effect
same,growth-preventing effect on phospholipase-positive bacteria,[4]; at 12° C.,the effect of the nitrogen gas was obvious
